Assays:
[1] = tested on: AEA cellular uptake in U937 cells; experiment: cells; type: cell-based, human; settings: 10 µM
Rat recombinant TRPM8 = target: T1, Rat recombinant TRPM8 (Rattus norvegicus, UniProt Q8R455); experiment: TRP channel [Ca2+]i assay; type: cell-based; settings: agonist
T1 construct: expressed in transfected cells; host or cells: HEK293 (TRPM8-HEK-293, gift from Mario van der Stelt)

Rat recombinant TRPV4 = target: T2, Rat recombinant TRPV4 (Rattus norvegicus, UniProt Q9ERZ8); experiment: cell-based; type: cell-based
T2 construct: expressed in transfected cells; host or cells: HEK293 (TRPV4-HEK-293, gift from HB Bradshaw, Indiana University)
T2 sequence (Q9ERZ8 whole entry): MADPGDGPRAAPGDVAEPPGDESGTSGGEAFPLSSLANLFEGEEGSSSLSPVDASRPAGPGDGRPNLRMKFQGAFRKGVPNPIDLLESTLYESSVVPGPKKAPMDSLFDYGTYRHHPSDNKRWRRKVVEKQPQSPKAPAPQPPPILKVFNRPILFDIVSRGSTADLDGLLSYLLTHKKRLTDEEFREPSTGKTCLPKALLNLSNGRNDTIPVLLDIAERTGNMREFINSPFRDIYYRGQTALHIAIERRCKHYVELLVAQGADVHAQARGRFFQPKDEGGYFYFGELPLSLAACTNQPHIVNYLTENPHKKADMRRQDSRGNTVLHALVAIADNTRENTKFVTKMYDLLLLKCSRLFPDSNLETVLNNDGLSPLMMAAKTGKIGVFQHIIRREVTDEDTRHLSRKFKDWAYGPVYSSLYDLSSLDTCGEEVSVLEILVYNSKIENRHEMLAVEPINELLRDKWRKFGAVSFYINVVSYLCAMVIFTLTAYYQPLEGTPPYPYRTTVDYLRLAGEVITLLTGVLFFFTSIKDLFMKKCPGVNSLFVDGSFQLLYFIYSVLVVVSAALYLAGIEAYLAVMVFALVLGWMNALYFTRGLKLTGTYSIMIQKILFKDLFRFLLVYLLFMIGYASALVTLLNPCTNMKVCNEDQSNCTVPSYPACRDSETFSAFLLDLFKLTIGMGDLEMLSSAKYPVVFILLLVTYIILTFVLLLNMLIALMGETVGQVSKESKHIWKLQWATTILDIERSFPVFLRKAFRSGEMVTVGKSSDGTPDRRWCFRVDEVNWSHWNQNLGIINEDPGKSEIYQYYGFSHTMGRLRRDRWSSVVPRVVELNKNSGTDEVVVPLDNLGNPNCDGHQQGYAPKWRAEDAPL

Rat recombinant TRPV3 = target: T3, Rat recombinant TRPV3 (Rattus norvegicus, UniProt Q4QYD9); experiment: cell-based; type: cell-based
T3 construct: expressed in transfected cells; host or cells: HEK293 (TRPV3-HEK-293, gift from HB Bradshaw, Indiana University)
T3 sequence (Q4QYD9 1-791): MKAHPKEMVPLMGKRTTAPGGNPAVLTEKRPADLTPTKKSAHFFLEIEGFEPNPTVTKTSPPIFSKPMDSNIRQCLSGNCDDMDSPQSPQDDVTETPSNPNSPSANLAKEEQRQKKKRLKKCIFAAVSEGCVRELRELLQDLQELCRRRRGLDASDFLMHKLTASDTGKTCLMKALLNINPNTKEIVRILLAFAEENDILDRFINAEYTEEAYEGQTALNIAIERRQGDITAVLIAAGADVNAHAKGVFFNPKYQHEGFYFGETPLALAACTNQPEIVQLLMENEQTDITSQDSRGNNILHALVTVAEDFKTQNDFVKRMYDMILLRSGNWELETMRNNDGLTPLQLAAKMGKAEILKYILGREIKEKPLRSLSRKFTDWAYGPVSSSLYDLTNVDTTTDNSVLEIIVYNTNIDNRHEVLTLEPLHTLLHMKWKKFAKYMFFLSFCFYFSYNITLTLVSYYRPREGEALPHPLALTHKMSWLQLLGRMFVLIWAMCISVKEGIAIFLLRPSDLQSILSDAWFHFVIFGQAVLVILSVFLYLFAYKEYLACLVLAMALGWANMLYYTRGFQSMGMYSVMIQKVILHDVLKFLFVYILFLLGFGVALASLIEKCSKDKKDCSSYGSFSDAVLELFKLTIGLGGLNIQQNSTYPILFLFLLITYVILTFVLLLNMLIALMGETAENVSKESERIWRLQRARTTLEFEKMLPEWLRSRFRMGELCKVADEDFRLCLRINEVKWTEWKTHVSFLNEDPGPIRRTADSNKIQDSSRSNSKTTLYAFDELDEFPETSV

Rat recombinant TRPV2 = target: T4, Rat recombinant TRPV2 (Rattus norvegicus, UniProt Q9WUD2); experiment: cell-based; type: cell-based
T4 construct: expressed in transfected cells; host or cells: HEK293 (plasmid a gift from HB Bradshaw, Indiana University)
T4 sequence (Q9WUD2 1-761): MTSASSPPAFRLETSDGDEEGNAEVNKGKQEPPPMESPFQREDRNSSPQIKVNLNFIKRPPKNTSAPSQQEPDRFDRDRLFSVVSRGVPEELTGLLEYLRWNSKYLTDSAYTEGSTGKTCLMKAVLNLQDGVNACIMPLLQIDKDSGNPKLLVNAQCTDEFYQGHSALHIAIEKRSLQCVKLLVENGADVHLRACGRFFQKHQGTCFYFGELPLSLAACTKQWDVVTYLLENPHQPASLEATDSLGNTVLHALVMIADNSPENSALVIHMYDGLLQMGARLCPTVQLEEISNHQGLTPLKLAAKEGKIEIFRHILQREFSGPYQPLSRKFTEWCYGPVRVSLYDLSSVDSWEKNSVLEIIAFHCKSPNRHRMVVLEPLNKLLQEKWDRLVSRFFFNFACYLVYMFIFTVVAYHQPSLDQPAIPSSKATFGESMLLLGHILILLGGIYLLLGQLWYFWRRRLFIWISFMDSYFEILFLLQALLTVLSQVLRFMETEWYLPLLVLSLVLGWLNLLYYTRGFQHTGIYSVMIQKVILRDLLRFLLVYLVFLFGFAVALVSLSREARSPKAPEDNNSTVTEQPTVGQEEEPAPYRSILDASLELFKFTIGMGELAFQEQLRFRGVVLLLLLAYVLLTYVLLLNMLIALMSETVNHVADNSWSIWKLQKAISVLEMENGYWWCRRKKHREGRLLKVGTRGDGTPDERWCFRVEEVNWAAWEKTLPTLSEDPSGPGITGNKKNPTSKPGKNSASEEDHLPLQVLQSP

hDAGL-α = target: T5, hDAGL-α (Homo sapiens, UniProt Q9Y4D2); experiment: Biochemical DAGLα activity assay; settings: 10 µM
T5 construct: expressed in transfected cells; host or cells: HEK293T (transient), membrane preparation
T5 sequence (Q9Y4D2 1-1042): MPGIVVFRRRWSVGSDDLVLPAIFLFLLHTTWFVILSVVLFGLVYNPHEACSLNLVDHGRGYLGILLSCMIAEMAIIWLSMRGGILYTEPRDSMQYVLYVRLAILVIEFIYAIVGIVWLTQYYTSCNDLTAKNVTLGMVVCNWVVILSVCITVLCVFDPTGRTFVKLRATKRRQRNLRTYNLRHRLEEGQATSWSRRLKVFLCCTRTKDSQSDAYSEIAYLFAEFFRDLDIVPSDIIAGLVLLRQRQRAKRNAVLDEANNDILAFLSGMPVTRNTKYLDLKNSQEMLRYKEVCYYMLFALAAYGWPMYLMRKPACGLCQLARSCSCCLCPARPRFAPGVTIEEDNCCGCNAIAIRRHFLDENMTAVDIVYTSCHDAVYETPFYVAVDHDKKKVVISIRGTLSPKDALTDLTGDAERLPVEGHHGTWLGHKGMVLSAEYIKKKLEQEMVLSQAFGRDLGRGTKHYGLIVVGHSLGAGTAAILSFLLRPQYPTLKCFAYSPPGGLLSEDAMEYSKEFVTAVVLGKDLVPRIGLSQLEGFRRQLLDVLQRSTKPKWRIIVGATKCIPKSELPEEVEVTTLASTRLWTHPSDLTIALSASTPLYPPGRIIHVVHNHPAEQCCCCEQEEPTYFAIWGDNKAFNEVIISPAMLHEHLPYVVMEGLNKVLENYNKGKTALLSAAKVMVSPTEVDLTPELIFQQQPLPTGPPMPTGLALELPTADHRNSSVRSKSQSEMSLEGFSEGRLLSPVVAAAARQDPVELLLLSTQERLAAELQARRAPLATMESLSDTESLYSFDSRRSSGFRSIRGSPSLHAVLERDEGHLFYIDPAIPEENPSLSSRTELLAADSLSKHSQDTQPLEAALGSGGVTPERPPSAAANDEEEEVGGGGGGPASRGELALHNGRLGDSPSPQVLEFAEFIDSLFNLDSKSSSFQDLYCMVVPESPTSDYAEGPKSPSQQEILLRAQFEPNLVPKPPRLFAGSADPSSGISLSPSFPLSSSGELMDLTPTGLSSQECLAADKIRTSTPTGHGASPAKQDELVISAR
Experimental: (§1) Cell culture and membrane preparation were performed as previously described. HEK293T cells (source: Dutch Cancer Institute) were grown in DMEM with stable glutamine and phenolred (PAA), 10% New Born Calf serum, penicillin and streptomycin. Cells were passaged every 2–3 days by resuspending in medium and seeding them to appropriate confluence. Membranes were prepared from transiently transfected HEK293T cells. One day prior to transfection 10^7 cells were seeded in a 15 cm petri dish. Cells were transfected by the addition of a 3:1 mixture of polyethyleneimine (60 μg) and plasmid DNA (20 μg) in 2 ml serum-free medium. The medium was refreshed after 24 h, and after 72 h the cells were harvested by suspending them in 20 ml medium. The suspension was centrifuged for 10 min at 1000, rpm, and the supernatant was removed. The cell pellet was stored at −80 °C until use. Cell pellets were thawed on ice and suspended in lysis buffer A (20 mM HEPES, 2 mM DTT, 0.25 M sucrose, 1 mM MgCl2, […] Benzonase). The suspension was homogenized by polytrone (3 × 7 s) and incubated for 30 min on ice. The suspension was subjected to ultracentrifugation (100,000 × g, 30 min, 4 °C, Beckman Coulter, Type Ti70 rotor) to yield the cytosolic fraction in the supernatant and the membrane fraction as a pellet. The pellet was resuspended in lysis buffer B (20 mM HEPES, 2 mM DTT). The protein concentration was determined with Quick Start Bradford assay (Biorad). The protein fractions were diluted to a total protein concentration of 1 mg ml^−1 and stored in small aliquots at −80 °C until use.
hDAGL-α activity was measured by the extent of the hydrolysis of para-nitrophenylbutyrate (PNP-butyrate) by membrane preparations from HEK293T cells (source: Dutch Cancer Institute) transiently transfected with hDAGL-α (ref. [43]). Percentage of inhibition of reference ligands was determined in comparison with an untreated control. Reactions were performed in 50 mM pH 7.2 HEPES buffer with 0.05 μg μl^−1 final protein concentration hDAGL-α transfected protein.

human NAPE-PLD = target: T6, human NAPE-PLD (Homo sapiens, UniProt Q6IQ20); experiment: NAPE-PLD inhibition; type: biochemical; settings: 10 µM
T6 construct: Full length human cDNA NAPE-PLD was obtained from Natsuo Ueda; expressed in transfected cells; host or cells: HEK293T (transient), membrane fraction
T6 sequence (Q6IQ20 whole entry): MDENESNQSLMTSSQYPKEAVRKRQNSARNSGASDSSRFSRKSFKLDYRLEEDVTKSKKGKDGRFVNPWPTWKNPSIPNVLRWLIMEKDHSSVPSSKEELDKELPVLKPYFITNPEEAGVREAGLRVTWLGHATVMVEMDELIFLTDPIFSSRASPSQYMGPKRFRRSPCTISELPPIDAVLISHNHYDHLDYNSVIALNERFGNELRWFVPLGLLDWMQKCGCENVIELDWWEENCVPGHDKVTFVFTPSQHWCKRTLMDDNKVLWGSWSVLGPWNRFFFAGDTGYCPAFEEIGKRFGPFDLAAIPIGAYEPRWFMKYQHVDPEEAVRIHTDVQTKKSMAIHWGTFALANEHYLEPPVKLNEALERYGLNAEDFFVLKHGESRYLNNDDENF
Experimental: Full length human cDNA NAPE-PLD was obtained from Natsuo Ueda[58] and cloned into mammalian expression vector pcDNA3.1, containing a C-terminal Flag-tag and genes for ampicillin and neomycin resistance. All plasmids were grown in XL-10 Z-competent cells and prepped (Maxi Prep, Qiagen). Sequence analysis for the confirmation of the sequences was performed at the Leiden Genome Technology Centre.
HEK293T cells (source: Dutch Cancer Institute) were cultured at 37 °C and 7% CO2 in DMEM with glutamax, penicillin (100 μg ml^−1), streptomycin (100 μg ml^−1) and 10% New Born Calf Serum iron supplemented (Hyclone SH30072.03). Cells were passaged twice a week to appropriate confluence. Twenty-four hours before transfection 10^7 cells were seeded on a 15 cm dish. Two hours before transfection, the medium was refreshed. Transfection is performed with PEI in a ratio of 3:1 with human NAPE-PLD or Mock pcDNA3.1Neo, 20 μg per dish. Medium is refreshed after 24 h and cells are harvested after 72 h. Cell suspensions are centrifuged at 1,000g for 10 min, supernatant removed and pellets frozen at −80 °C until further use.
Cell pellets are re-suspended in lysis buffer 1: 20 mM Hepes, 2 mM DTT, 0.25 M sucrose, 1 mM MgCl2, 2.5 U ml^−1 benzonase and incubated 30 min on ice. The cytosolic fraction (supernatant) is separated from the membranes by ultra-centrifugation (32,000 rpm for 30 min 100,000g). The pellet is resuspended in buffer 2: 20 mM Hepes, 2 mM DTT (membrane fraction). All samples are stored at −80 °C. Enzyme concentrations are determined using a Bradford assay.
The membrane protein fraction from transient overexpression of NAPE-PLD in HEK293T cells was diluted to 0.4 mg ml^−1 in assay buffer: 50 mM Tris-HCl (pH 7.5), 0.02% Triton X-100, 150 mM NaCl (ref. [60]). […] Relevant concentrations of compounds are prepared in DMSO. The assay is performed in a dark Greiner 96-well plate, end volume 100 μl. The compound or DMSO is incubated with membrane protein lysate (final concentration 0.04 mg ml^−1) for 30 min at 37 °C. A sample without membrane protein lysate is incorporated for background subtraction. Then, substrate is added (final concentration 1 μM) and the measurement is started immediately on a TECAN infinite M1000 pro at 37 °C (excitation 485 nm, emission 535 nm), scanning every 2 min for 1 h.

MAGL = target: T7, MAGL (Homo sapiens, UniProt Q99685); experiment: Biochemical MAGL activity assay; settings: 10 µM
T7 construct: expressed in transfected cells; host or cells: HEK293T (transient), membrane preparation
T7 sequence (Q99685 1-303): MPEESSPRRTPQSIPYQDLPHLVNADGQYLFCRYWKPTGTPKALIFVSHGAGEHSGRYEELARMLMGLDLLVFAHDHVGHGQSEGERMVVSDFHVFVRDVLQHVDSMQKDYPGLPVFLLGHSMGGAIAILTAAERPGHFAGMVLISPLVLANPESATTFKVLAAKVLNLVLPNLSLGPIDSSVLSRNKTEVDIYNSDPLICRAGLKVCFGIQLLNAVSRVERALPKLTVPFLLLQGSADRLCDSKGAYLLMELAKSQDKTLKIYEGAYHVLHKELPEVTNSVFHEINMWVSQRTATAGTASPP
Experimental: as §1
Percentage of inhibition of reference ligands was determined in comparison with an untreated control. […] Fluorescence was measured in 5 min intervals for 60 min.

T1 sequence (Q8R455 whole entry): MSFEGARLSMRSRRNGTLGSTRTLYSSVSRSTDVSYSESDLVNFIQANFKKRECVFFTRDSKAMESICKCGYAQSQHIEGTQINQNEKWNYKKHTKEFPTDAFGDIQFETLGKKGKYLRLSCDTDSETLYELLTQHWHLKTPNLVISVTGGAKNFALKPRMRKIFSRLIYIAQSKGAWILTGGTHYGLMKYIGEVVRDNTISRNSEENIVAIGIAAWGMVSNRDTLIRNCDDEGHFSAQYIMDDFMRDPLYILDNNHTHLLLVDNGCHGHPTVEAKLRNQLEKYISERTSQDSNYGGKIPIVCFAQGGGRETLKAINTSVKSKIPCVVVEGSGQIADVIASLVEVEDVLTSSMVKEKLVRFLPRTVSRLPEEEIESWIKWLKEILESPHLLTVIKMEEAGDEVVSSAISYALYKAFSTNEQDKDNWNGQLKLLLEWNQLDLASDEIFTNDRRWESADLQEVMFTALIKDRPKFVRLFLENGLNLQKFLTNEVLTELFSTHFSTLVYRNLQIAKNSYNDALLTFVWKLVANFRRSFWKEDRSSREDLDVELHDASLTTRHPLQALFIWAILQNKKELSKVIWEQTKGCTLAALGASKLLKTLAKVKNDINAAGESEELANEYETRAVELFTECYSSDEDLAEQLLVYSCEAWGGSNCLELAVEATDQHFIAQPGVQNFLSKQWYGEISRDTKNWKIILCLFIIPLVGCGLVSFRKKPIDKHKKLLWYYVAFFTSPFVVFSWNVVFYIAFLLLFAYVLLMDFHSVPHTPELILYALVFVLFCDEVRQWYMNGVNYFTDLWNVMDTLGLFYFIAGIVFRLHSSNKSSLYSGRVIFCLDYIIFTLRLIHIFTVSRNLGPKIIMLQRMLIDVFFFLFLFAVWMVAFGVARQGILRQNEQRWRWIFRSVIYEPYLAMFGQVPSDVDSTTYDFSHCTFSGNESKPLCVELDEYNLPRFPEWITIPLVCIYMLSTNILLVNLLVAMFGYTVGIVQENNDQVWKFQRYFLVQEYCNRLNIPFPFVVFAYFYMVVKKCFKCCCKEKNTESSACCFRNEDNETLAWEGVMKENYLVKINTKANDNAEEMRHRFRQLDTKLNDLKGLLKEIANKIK

CCCCCCCC/C=C\CCCCCCCC(=O)N[C@@H](CO)Cc1ccc(O)cc1 [OMDM-2]
AEA cellular uptake inhibition, positive controls [1]: 59.7±6.6%

CCCCC/C=C\C/C=C\C/C=C\C/C=C\CCCC(=O)NCc1ccoc1 [UCM707]
AEA cellular uptake inhibition, positive controls [1]: 71.5±8.0%

O=C1NC(c2cccc([N+](=O)[O-])c2)=CCN1c1ccccc1O [icilin]
TRPM8 efficacy (Rat recombinant TRPM8): 75.1±1.1
EC50 (Rat recombinant TRPM8; read-out: TRPM8 potency EC50): 110 ± 10 nM

CCCCCCCCCC(=O)O[C@@H]1[C@@H](C)[C@@]2(O)[C@@H](C=C(CO)C[C@@]3(O)C(=O)C(C)=C[C@@H]23)[C@@H]2C(C)(C)[C@]12OC(=O)CCCCCCCCC [4α-PDD, 4α-phorbol 12,13-didecanoate]
TRPV4 Efficacy (% ionomycin 4μM) (Rat recombinant TRPV4): 51.9±1.7%
EC50 (Rat recombinant TRPV4; read-out: TRPV4 Potency EC50): 460 ± 70 nM

Cc1ccc(C(C)C)c(O)c1 [thymol]
TRPV3 Efficacy (% ionomycin 4μM) (Rat recombinant TRPV3): 34.7±0.2%
EC50 (Rat recombinant TRPV3; read-out: TRPV3 Potency EC50): 84100 ± 1600 nM

lysophosphatidylcholine [LPC]
TRPV2 Efficacy (% ionomycin 4μM) (Rat recombinant TRPV2): 91.7±0.5%
EC50 (Rat recombinant TRPV2; read-out: TRPV2 Potency EC50): 3400 ± 20 nM

CCCCCc1cc(O)c2c(c1)OC(C)(C)[C@@H]1CCC(C)=C[C@@H]21 [Δ9-THC, Δ^9-tetrahydrocannabinol]
DAGL % inhibition at 10 µM ± SD (hDAGL-α): -9 ± 12%
NAPE-PLD % inhibition at 10 µM ± SD (human NAPE-PLD): 0 ± 12%
MAGL % inhibition at 10 µM ± SD (MAGL): 7 ± 17%

Reference: PMC5216056 (Nature Communications, 2017)
